From patent US20060079566A1, “PDK-1/Akt signaling inhibitors” (priority 2003, published 2006)
pIC50: −log10 of the molar value. Read-outs that look alike come from different tables or passages of the source.

What was measured:
recombinant PDK-1 = biological target: T1, recombinant PDK-1 (Homo sapiens, UniProt O15530); assay: PDK-1 kinase activity (Upstate kit, SGK-coupled, cell-free); type: biochemical
T1 construct: purchased Upstate (Lake Placid, N.Y.)
T1 sequence (O15530 1-556): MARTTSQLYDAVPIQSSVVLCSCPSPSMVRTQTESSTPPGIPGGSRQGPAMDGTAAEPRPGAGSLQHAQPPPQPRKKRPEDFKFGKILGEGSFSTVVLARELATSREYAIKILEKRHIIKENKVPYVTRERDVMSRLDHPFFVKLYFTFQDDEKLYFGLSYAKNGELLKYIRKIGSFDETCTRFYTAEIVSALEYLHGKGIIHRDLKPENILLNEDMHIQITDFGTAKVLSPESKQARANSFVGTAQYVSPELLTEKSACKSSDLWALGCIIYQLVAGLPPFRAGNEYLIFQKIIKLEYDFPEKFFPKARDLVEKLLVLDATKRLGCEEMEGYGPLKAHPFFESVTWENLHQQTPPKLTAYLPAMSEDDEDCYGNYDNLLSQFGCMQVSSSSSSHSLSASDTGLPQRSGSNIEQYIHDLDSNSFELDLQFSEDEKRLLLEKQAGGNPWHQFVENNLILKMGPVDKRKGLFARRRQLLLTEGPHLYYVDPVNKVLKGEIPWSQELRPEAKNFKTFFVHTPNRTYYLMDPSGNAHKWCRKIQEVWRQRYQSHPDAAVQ
Experimental: PDK-1 kinase activity This in vitro assay was performed using a PDK-1 kinase assay kit (Upstate, Lake Placid, N.Y.) according to the vendor's instructions. This cell-free assay is based on the ability of recombinant PDK-1, in the presence of DMSO vehicle or the test agent, to activate its downstream kinase serum- and glucocorticoid-regulated kinase (SGK.) which, in turn, phosphorylates the Akt/SGK-specific peptide substrate RPRAATF with [γ-^32]-ATP. […] The reported values represent the means of two independent determinations.

PC-3 cells = assay: Cell viability analysis (MTT) in PC-3 cells; type: cell-based, human; details: Homo sapiens; inducing apoptotic death in PC-3 cells / PC-3 cell viability; read-out: IC50 PC-3
Experimental: Cell Culture PC-3 (p53−/−) human androgen-nonresponsive prostate cancer cells were purchased from the American […] (Manassas, Va.). Cells were cultured in RPMI 1640 medium (Gibco, Grand Island, N.Y.) supplemented with 10% fetal bovine serum (FBS; Gibco) at 37° C. in a humidified incubator containing 5% CO2.
Cell viability analysis The effect of 4-[5-(4-methylphenyl)-3-(trifluoromethyl)-1H-pyrazol-1-yl]benzenesulfonamide and its derivatives on PC-3 cell viability was assessed by using the MTT {[3-(4,5-dimethylthiazol-2-yl)-2,5-diphenyl-2H-tetrazolium bromide]} assay in six replicates. Cells were grown in 10% FBS-supplemented RPMI 1640 medium in 96-well, flat bottomed plates for 24 h, and were exposed to various concentrations of compounds 1-36 dissolved in DMSO (final concentration ≦0.1%) in 1% serum-containing RPMI 1640 medium for different time intervals. Controls received DMSO vehicle at a concentration equal to that in drug-treated cells. The medium was removed, replaced by 200 μl of 0.5 mg/ml of MTT in 10% FBS-containing RPMI-1640 medium, and cells were incubated in the CO2 incubator at 37° C. for 2 h. Supernatants were removed from the wells, and the reduced MTT dye was solubilized in 200 μL/well DMSO. Absorbance at 570 nm was determined on a plate reader.

[1] = inhibiting recombinant PDK-1 kinase activity, read-out: IC50 PDK-1

| SMILES | pIC50 (recombinant PDK-1; [1]) | pIC50 (PC-3 cells) | pIC50 (recombinant PDK-1) |
| --- | --- | --- | --- |
| NS(=O)(=O)c1ccc(-n2nc(C(F)(F)F)cc2-c2c3ccccc3cc3ccccc23)cc1 [Compound 58, 4-[5-(9-anthracenyl)-3-(trifluoromethyl)-1H-1-yl]benzenesulfonamide] | 4.92 | 5.15 | – |
| Cc1ccc(-c2cc(C(F)(F)F)nn2-c2ccc(S(N)(=O)=O)cc2)cc1 [Comparative Compound, 4-[5-(4-methylphenyl)-3-(trifluoromethyl)-1H-pyrazol-1-yl]benzenesulfonamide, reference compound] | 4.32 | 4.52 | – |
| NS(=O)(=O)c1ccc(-n2nc(C(F)(F)F)cc2-c2ccc(CCCBr)cc2)cc1 [Compound 38, 4-[5-(4-(3-bromopropyl)phenyl)-3-(trifluoromethyl)-1H-pyrazol-1-yl]benzenesulfonamide] | – | 4.77 | 4.42 |
| O/N=C/c1ccc(-n2nc(C(F)(F)F)cc2-c2ccc3c(ccc4ccccc43)c2)cc1 [Compound 65, 4-5[-(2-Phenanthrenyl)-3-(trifluoromethyl)-1H-pyraxol-1-yl]-benzaldehyde oxime] | – | 4.85 | – |
| CC(C)(C)c1ccc(-c2ccc(-c3cc(C(F)(F)F)nn3-c3ccc(S(N)(=O)=O)cc3)cc2)cc1 [Compound 55, 4-[5-(4′-tert-buty[1,1′-biphenyl]-4-yl)-3-(trifluoromethyl)-1H-1-yl]benzenesulfonamide] | 4.49 | 4.82 | – |
| NS(=O)(=O)c1ccc(-n2nc(C(F)(F)F)cc2-c2ccc(Cc3ccccc3)cc2)cc1 [Compound 56, 4-[5-(4-(phenylmethyl)phenyl)-3-(trifluoromethyl)-1H-1-yl]benzenesulfonamide] | – | 5.10 | – |
| NS(=O)(=O)c1ccc(-n2nc(C(F)(F)F)cc2-c2ccc(-c3ccc(Cl)cc3)cc2)cc1 [Compound 46, 4-[5-(4′-chloro[1,1′-biphenyl]-4-yl)-3-(trifluoromethyl)-1H-pyrazol-1-yl]benzenesulfonamide] | – | 5.05 | 4.66 |
| NS(=O)(=O)c1ccc(-n2nc(C(F)(F)F)cc2-c2ccc(-c3cc(Cl)cc(Cl)c3)cc2)cc1 [Compound 47, 4-[5-(3′,5′-dichloro[1,1′-biphenyl]-4-yl)-3-(trifluoromethyl)-1H-pyrazol-1-yl]benzenesulfonamide] | – | 5.00 | 4.74 |
| NS(=O)(=O)c1ccc(-n2nc(C(F)(F)F)cc2-c2ccc(CCBr)cc2)cc1 [Compound 37, 4-[5-(4-(2-bromoethyl)phenyl)-3-(trifluoromethyl)-1H-pyrazol-1-yl]benzenesulfonamide] | – | 4.74 | 4.38 |
| NS(=O)(=O)c1ccc(-n2nc(C(F)(F)F)cc2-c2cc3ccccc3c3ccccc23)cc1 [Compound 60, 4-[5-(9-phenanthrenyl)-3-(trifluoromethyl)-1H-1-yl]benzenesulfonamide] | – | 4.64 | 4.38 |
| NN=Cc1ccc(-n2nc(C(F)(F)F)cc2-c2ccc3c(ccc4ccccc43)c2)cc1 [Compound 66, 4-[5-(2-Phenanthrenyl)-3-(trifluoromethyl)-1H-pyrazol-1-yl]-benzaldehyde hydrazone] | 4.80 | 5.00 | – |
| [N-]=[N+]=NCCCc1ccc(-c2cc(C(F)(F)F)nn2-c2ccc(S(N)(=O)=O)cc2)cc1 [Compound 40, 4-[5-(4-(3-azidopropyl)phenyl)-3-(trifluoromethyl)-1H-pyrazol-1-yl]benzenesulfonamide] | – | 4.74 | 4.47 |
| CCCCc1ccc(-c2cc(C(F)(F)F)nn2-c2ccc(S(N)(=O)=O)cc2)cc1 [Compound 41, 4-[5-(4-butylphenyl)-3-(trifluoromethyl)-1H-pyrazol-1-yl]benzenesulfonamide] | – | 5.05 | 4.70 |
| NS(=O)(=O)c1ccc(-n2nc(C(F)(F)F)cc2-c2ccc(-c3cccc(Cl)c3Cl)cc2)cc1 [Compound 48, 4-[5-(2′,3′-dichloro[1,1′-biphenyl]-4-yl)-3-(trifluoromethyl)-1H-pyrazol-1-yl]benzenesulfonamide] | 4.64 | 5.00 | – |
| NS(=O)(=O)c1ccc(-n2nc(C(F)(F)F)cc2-c2ccc3c(c2)Cc2ccccc2-3)cc1 [Compound 57, 4-[5-(9H-fluoren-2-yl)-3-(trifluoromethyl)-1H-1-yl]benzenesulfonamide] | 4.80 | – | – |
| NC(=O)c1ccc(-n2nc(C(F)(F)F)cc2-c2ccc3c(ccc4ccccc43)c2)cc1 [Compound 61, 4-[5-(2-Phenanthracenyl)-3-(trifluoromethyl)-1H-pyrazol-1-yl]-benzenecarboxamide] | 4.92 | 5.15 | – |
| NS(=O)(=O)c1ccc(-n2nc(C(F)(F)F)cc2-c2ccc(-c3cc(Cl)c(Cl)cc3Cl)cc2)cc1 [Compound 49, 4-[5-(2′,4′,5′-trichloro[1,1′-biphenyl]-4-yl)-3(trifluoromethyl)-1H-pyrazol-1-yl]benzenesulfonamide] | – | 5.30 | 5.05 |
| NS(=O)(=O)c1ccc(-n2nc(C(F)(F)F)cc2-c2ccc(-c3ccccc3)cc2)cc1 [Compound 45] | 4.68 | 4.96 | – |
| NS(=O)(=O)c1ccc(-n2nc(C(F)(F)F)cc2-c2c[nH]c3ccccc23)cc1 [Compound 44, 4-[5-(3-indolyl)-3(trifluoromethyl)-1H-pyrazol-1-yl]benzenesulfonamide] | – | 4.51 | 4.19 |
| NS(=O)(=O)c1ccc(-n2nc(C(F)(F)F)cc2-c2ccc(-c3ccc(CBr)cc3)cc2)cc1 [Compound 52, 4-[5-(4′-bromomethyl[1,1′-biphenyl]-4-yl)-3-(trifluoromethyl)-1H-1-yl]benzenesulfonamide] | 4.70 | 4.96 | – |
| NC(=O)Nc1ccc(-n2nc(C(F)(F)F)cc2-c2ccc3c(ccc4ccccc43)c2)cc1 [Compound 72, 4-[5-(2-Phenanthrenyl)-3-(trifluoromethyl)-1H-pyrazol-1-yl]phenyl urea] | 4.40 | 4.62 | – |
| Cc1ccc(-c2ccc(-c3cc(C(F)(F)F)nn3-c3ccc(S(N)(=O)=O)cc3)cc2)cc1 [Compound 50, 4-[5-(4′-methyl[1,1′-biphenyl]4-yl)-3-(trifluoromethyl)-1H-1-yl]benzenesulfonamide] | – | 5.10 | – |
| CC(C)(C)c1ccc(-c2cc(C(F)(F)F)nn2-c2ccc(S(N)(=O)=O)cc2)cc1 [Compound 42, 4-[5-(4-t-butylphenyl)-3-(trifluoromethyl)-1H-pyrazol-1-yl]benzenesulfonamide] | – | 4.74 | 4.47 |
| CCCCc1ccc(-c2ccc(-c3cc(C(F)(F)F)nn3-c3ccc(S(N)(=O)=O)cc3)cc2)cc1 [Compound 54, 4-[5-(4′-butyl[1,1′-biphenyl]-4-yl)-3-(trifluoromethyl)-1H-1-yl]benzenesulfonamide] | 4.49 | 4.82 | – |
| Cc1cc(C)cc(-c2ccc(-c3cc(C(F)(F)F)nn3-c3ccc(S(N)(=O)=O)cc3)cc2)c1 [Compound 53, 4-[5-(3′,5′-dimethyl[1,1;-biphenyl]-4-yl)-3-(trifluoromethyl)-1H-1-yl]benzenesulfonamide] | 4.77 | – | – |
| N#Cc1ccc(-n2nc(C(F)(F)F)cc2-c2ccc3c(ccc4ccccc43)c2)cc1 [Compound 62, 4-[5-(2-Phenanthrenyl)-3-(trifluoromethyl)-1H-pyrazol-1-yl]-benzonitrile] | 4.35 | 4.52 | – |
| N#CCc1ccc(-n2nc(C(F)(F)F)cc2-c2ccc3c(ccc4ccccc43)c2)cc1 [Compound 67, {4-[5-(2-Phenanthrenyl)-3-(trifluoromethyl)-1H-pyrazol-1-yl]-phenyl}-acetonitrile] | 4.38 | 4.60 | – |
| [N-]=[N+]=NCCc1ccc(-c2cc(C(F)(F)F)nn2-c2ccc(S(N)(=O)=O)cc2)cc1 [Compound 39, 4-[5-(4-(2-azidoethyl)phenyl)-3-(trifluoromethyl)-1H-pyrazol-1-yl]benzenesulfonamide] | – | 4.77 | 4.49 |
| NC(Cc1ccc(-n2nc(C(F)(F)F)cc2-c2ccc3c(ccc4ccccc43)c2)cc1)=NO [Compound 68, 2-{4-[5-(2-Phenanthrenyl)-3-(trifluoromethyl)-1H-pyrazol-1-y]-phenyl}-N-hydroxy-acetamidine] | – | 5.10 | – |
| N=C(NO)c1ccc(-n2nc(C(F)(F)F)cc2-c2ccc3c(ccc4ccccc43)c2)cc1 [Compound 63, 4-[5-(2-Phenanthrenyl)-3-(trifluoromethyl)-1H-pyrazol-1-yl]-N-hydroxybenzamidine] | – | 4.60 | 4.40 |
